Data as given in patent US20260193219A1, “TRIAZINE DERIVATIVES FOR TREATING DISEASES RELATING TO NEUROTROPHINS” (AlzeCure Pharma AB, priority 2020, published 2026).

How the values were obtained:
TrkA = biological target: T1, TrkA (Homo sapiens, UniProt P04629); assay: In vitro Trk receptor modulation assay (Enzyme Fragment Complementation), U2OS cells over-expressing TrkA; type: cell-based; settings: compound pre-mixed with ligand (NGF), final 10 ng/mL, 3 hours, modulator mode
T1 construct: expressed in transfected cells; host or cells: U2OS
T1 sequence (P04629 33-796): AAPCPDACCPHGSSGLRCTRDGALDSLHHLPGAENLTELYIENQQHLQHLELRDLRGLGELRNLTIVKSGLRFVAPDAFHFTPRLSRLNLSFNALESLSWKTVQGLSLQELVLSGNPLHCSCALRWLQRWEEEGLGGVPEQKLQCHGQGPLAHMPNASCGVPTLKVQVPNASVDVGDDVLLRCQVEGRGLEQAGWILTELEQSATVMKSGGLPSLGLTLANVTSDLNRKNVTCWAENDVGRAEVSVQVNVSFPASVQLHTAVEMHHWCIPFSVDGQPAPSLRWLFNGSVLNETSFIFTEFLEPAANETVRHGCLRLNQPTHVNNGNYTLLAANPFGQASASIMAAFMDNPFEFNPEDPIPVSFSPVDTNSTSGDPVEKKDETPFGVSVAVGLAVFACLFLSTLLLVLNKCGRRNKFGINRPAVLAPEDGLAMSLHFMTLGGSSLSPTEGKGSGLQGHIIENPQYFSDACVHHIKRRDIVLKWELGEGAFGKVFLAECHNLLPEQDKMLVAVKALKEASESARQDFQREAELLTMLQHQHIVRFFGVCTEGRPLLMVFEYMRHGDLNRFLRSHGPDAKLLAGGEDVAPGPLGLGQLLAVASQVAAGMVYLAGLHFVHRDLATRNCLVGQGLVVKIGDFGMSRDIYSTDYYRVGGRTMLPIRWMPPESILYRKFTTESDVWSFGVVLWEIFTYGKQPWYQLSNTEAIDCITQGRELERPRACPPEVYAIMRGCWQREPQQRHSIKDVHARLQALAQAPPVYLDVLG
Description: (§1) A high throughput cell-based screen was used to identify positive modulators of TrkA and TrkB. The screen involves the use of cell-based assay overexpressing TrkA, or TrkB. The purpose of the assay is to identify compounds that modulate neurotrophin signalling (Forsell et al 2012). The assay can be used in inhibitor mode using a high concentration of ligand, in modulator mode using an intermediate concentration and in agonist mode using a low concentration of ligand.
(§2) The assay uses Enzyme Fragment Complementation (EFC) technique, which is a proximity-based assay. Briefly, cells used in this assay over-express two fusion proteins, i.e. the receptor, which can be one of TrkA or TrkB fused to a small peptide of beta-galactosidase and an adaptor protein, i.e. SHC1 (or any other Trk-adaptor protein) fused to the major part of beta-galactosidase. […] The proximity between the small activating peptide on the receptor and the major part of beta-galactosidase on the adaptor protein leads to an active beta-galactosidase enzyme. The activation of the receptor is quantified by measuring the amount of active beta-galactosidase by its conversion of a non-luminescent substrate into a luminescent product.
(§3) U2OS-cells, over-expressing TrkA or TrkB, were plated in 96- or 384-well plates and incubated overnight. On the following day, test compound was pre-mixed with ligand (NGF) and the ligand-compound mixture is then added to the cells to yield a final ligand concentration of 10 ng/mL. After 3 hours of incubation at room temperature, the incubation is stopped by the addition of a beta-galactosidase substrate mixture containing detergents. The substrate mixture is incubated for 60 minutes at ambient temperature. The luminescence is thereafter read by the use of a plate reader.

[1] = Human liver microsomal stability; type: in vitro ADME; settings: human liver microsomes 0.5 mg/mL, 3 μM compound, NADPH, 37° C.
Experimental: A 10 mM stock solution (in DMSO) was prepared for each compound. From the intermediate stock solution of 2 mM, a working solution of 0.5 mM was prepared by diluting the compound in Acetonitrile:water (50:50). The compound (1.8 μL of working solution) was spiked in 0.1 M potassium phosphate buffer (260.7 μL), pH 7.4 at a concentration of 3 μM (0.1% DMSO). Following this, human liver microsomes (pooled, Invitrogen, #HMMCPL) (7.5 μL; final protein conc. 0.5 mg/mL) were added. The aforementioned sample was incubated at 37° C. for 5 min. Subsequently, 30 μL of 10 mM NADPH prepared in 0.1 M potassium phosphate buffer was added (as a co-factor) to initiate the reaction. The samples were then incubated at 37° C. for 0, 20, 40, 60 and 120 min.
At each time point (0, 20, 40, 60 and 120 min), 40 μL of the samples were withdrawn and reactions were stopped using 360 μL chilled acetonitrile or methanol containing suitable internal standard (Carbamazepine). The samples were centrifuged and the supernatants was analyzed in duplicate by LC-MS/MS. The percent compound remaining at each time point was calculated with respect to that of the 0 min sample. Control samples were run without NADPH for initial and final time point and blank samples was prepared using DMSO (without the test compound).
For comparison, the experiment was also performed with known Trk receptor signalling modulator 1-methyl-3-[3-methyl-4-(4-trifluoromethanesulfonylphenoxy)phenyl]-1,3,5-triazinane-2,4,6-trione) (ponazuril). Ponazuril is metabolized very slowly in vivo and this prolonged exposure creates an increased risk of side effects if the compound is administered systemically. This causes significant challenges to the development of the compound as a systemic drug.

TrkB = biological target: T2, TrkB (Homo sapiens, UniProt Q16620); assay: In vitro Trk receptor modulation assay (Enzyme Fragment Complementation), U2OS cells over-expressing TrkB; type: cell-based; settings: compound pre-mixed with ligand (NGF), final 10 ng/mL, 3 hours, modulator mode
T2 construct: expressed in transfected cells; host or cells: U2OS
T2 sequence (Q16620 32-822): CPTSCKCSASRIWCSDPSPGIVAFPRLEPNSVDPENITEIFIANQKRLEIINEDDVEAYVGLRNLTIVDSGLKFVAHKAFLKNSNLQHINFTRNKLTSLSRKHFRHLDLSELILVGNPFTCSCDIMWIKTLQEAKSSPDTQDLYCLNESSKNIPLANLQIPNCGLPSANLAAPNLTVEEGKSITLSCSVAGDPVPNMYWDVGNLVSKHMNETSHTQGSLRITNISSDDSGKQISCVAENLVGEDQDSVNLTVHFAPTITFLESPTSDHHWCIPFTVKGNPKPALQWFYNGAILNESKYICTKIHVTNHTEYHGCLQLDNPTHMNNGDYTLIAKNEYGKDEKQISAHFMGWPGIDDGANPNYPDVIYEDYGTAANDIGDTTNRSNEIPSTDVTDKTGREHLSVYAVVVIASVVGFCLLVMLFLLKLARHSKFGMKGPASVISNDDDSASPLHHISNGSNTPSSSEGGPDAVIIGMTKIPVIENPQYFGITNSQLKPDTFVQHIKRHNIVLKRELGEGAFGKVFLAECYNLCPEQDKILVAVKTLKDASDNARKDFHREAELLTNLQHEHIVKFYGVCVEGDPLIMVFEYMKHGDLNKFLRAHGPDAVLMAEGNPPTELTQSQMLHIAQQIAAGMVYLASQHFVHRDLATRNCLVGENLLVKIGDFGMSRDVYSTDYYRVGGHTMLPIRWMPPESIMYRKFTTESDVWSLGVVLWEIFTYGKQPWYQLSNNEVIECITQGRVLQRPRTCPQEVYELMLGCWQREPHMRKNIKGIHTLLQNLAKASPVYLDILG
Description: as §1, §2, §3

C57/B16 mice = assay: Forced Swim Test; type: in vivo; settings: 1 mg/kg single s.c. administration 30 min prior to FST on day 2
Experimental: The Forced Swim Test (FST) is a commonly used test in rodents to assess depression-like behaviour (Porsolt et al., Nature, 1977, 266, 730-732). The model measures a learned helplessness response and has shown to have predictive validity for clinical antidepressants, e.g. SSRIs.
The mouse version consists of a vertical glass cylinder (25 cm high, 13 cm in diameter) filled with tap water up to 16 cm in height (25±0.5° C.). This means that the animal cannot escape (climb out) nor stand on its tail or hindlimbs. After a certain time the animal realize that it cannot get out and will stop struggling to get out, and instead become immobile and float.
The animal is placed inside the cylinder and allowed two swimming sessions: a 10 min pre-test (on day 1), 24 h later (day 2) a second 6 min test is conducted. The total duration of immobility and latency to the first immobility are recorded during the second 6 min test. Immobility is defined as floating passively in an upright position in the water, with only small movements necessary to keep the head above the water surface. Animals are then gently removed from water and dried.
Vehicle (20% DMSO in 0.1M PBS) or 1 mg/kg of the compound of Example 1 were administered to C57/B16 mice as a single s.c. administration 30 min prior to FST on day 2. As comparator, fluoxetine is commonly used a dose of 20 mg/kg. […]

C57/Bl6 mice = assay: Passive avoidance task in scopolamine-treated mice; type: in vivo; settings: mice treated with scopolamine 0.3 mg/kg s.c.; compound single s.c. administration 60 min prior to training, different doses
Experimental: The passive avoidance (PA) is an aversive learning task based on classical (Pavlovian) fear conditioning that allows for analysis of both facilitation and impairment of memory function by adjusting the unconditioned stimulus, i.e. the electrical foot shock. Commonly a cognitive-impairing agent is administered to the animals to mimic the neurochemical disturbances present in various cognitive disorders e.g. cholinergic (scopolamine) and glutamatergic (MK-801) deficits.
Prior to testing, the animals are brought to the experimental room where they were allowed to habituate for 60 min. The test is conducted using a modified shuttle box with two communicating compartments of equal size with a small sliding door built into the separating wall and a stainless-steel bar floor. One of the compartments is not illuminated and thus black whereas the other compartment (the light one) is illuminated by an electric bulb, installed on the top of a plexiglass cover. The PA training is conducted in a single session. […] Latency to cross over into the dark compartment (training latency) is recorded. […] The latency to cross over into the dark compartment with all four feet is measured (retention latency) as well as time in bright compartment and a number of other relevant parameters (e.g. number of visits in the dark compartment). […]

EC50 (TrkA): 120 nM
% of parent compound metabolized after 120 min [1]: 26.8%
EC50 (TrkB): 150 nM
Compound: Cc1cccc(-n2c(=O)[nH]c(=O)n(-c3ccc(Oc4ccccc4)c(C)c3)c2=O)c1 [Example 1, 1-(3-methyl-4-phenoxyphenyl)-3-(3-methylphenyl)-1,3,5-triazinane-2,4,6-trione]
time spent immobile (Forced Swim Test) compared to vehicle control (C57/B16 mice): decreased time spent immobile
cognitive function, retention latency within the bright area (passive avoidance) (C57/Bl6 mice): improves cognitive function
